Data from patent US20060069132A1, “Azolecarboxamide herbicides” (priority 2004, published 2006).

How the values were obtained:
[1] = test system: pigweed; test: Test B pre-/postemergence herbicide test; type: in vivo, Amaranthus retroflexus
In short: (§1)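 Test chemicals in a non-phytotoxic solvent mixture with surfactant were applied preemergence to seeded species and postemergence to plants 2-18 cm tall (1- to 4-leaf stage); rice and barnyardgrass were also tested in a flooded paddy at the 2-leaf stage. Visual rating versus controls after 13-15 days in greenhouse, scale 0 (no effect) to 100 (complete control).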

[2] = test system: barnyardgrass; test: Test B pre-/postemergence herbicide test; type: in vivo, Echinochloa crus-galli
In short: (§2)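 Visual rating, 0 (no effect) to 100 (complete control), versus untreated controls after 13–15 d in greenhouse. Pre- and postemergence applications (postemergence plants 2–18 cm, 1–4 leaves); flooded paddy arm at 2-leaf stage. Compounds in non-phytotoxic solvent plus surfactant.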

[3] = test system: velvetleaf; test: Test B pre-/postemergence herbicide test; type: in vivo, Abutilon theophrasti
In short: as §1

[4] = test system: lambsquarters; test: Test B pre-/postemergence herbicide test; type: in vivo, Chenopodium album
In short: as §1

[5] = test system: Surinam grass; test: Test B pre-/postemergence herbicide test; type: in vivo, Urochloa decumbens
In short: as §1

[6] = test system: ducksalad; test: Test B flooded paddy test; type: in vivo, Heteranthera limosa; settings: 1000 g ai/ha, scale 0 to 100 (0 no effect, 100 complete control)
In short: (§3)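 Visual ratings, 0 (no effect) to 100 (complete control), made versus controls after 13–15 d greenhouse. Paddy plants treated at 2-leaf stage; postemergence plants at 1- to 4-leaf stage, 2–18 cm tall.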

[7] = test system: corn; test: Test B pre-/postemergence herbicide test; type: in vivo, Zea mays
In short: as §1

[8] = test system: giant foxtail; test: Test B pre-/postemergence herbicide test; type: in vivo, Setaria faberi
In short: as §1

[9] = test system: small flower umbrella sedge; test: Test B flooded paddy test; type: in vivo, Cyperus difformis; settings: 1000 g ai/ha, scale 0 to 100 (0 no effect, 100 complete control)
In short: as §3

[10] = test system: large crabgrass; test: Test B pre-/postemergence herbicide test; type: in vivo, Digitaria sanguinalis
In short: as §1

[11] = test system: wild oat; test: Test B postemergence herbicide test; type: in vivo, Avena fatua
In short: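 Treated at 2-leaf (paddy) or 1–4-leaf, 2–18 cm (postemergence); greenhouse 13–15 d; visual score vs control, 0 none to 100 complete control; dash = not tested.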

[12] = test system: cocklebur; test: Test B pre-/postemergence herbicide test; type: in vivo, Xanthium strumarium
In short: as §2

[13] = test system: blackgrass; test: Test B postemergence herbicide test; type: in vivo, Alopecurus myosuroides
In short: as §3

[14] = test system: morningglory; test: Test B pre-/postemergence herbicide test; type: in vivo, Ipomoea coccinea
In short: as §2

[15] = test system: rice; test: Test B flooded paddy test; type: in vivo, Oryza sativa; settings: 1000 g ai/ha, scale 0 to 100 (0 no effect, 100 complete control)
In short: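 Paddy species grown to the 2-leaf stage under flooding; blackgrass sprayed postemergence at 2–18 cm (1- to 4-leaf stage). Plants kept in a greenhouse for 13 to 15 days, then visually rated against controls on 0 (no effect) to 100 (complete control).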

[16] = 125 g ai/ha; 0 = no effect, 100 = complete control; preemergence
[17] = 500 g ai/ha; visual rating, 0 = no effect, 100 = complete control; preemergence
[18] = postemergence, 125 g ai/ha; visual rating, scale 0 (no effect) to 100 (complete control)
[19] = postemergence, 500 g ai/ha; scale 0 to 100, 0 is no effect, 100 is complete control
[20] = 125 g ai/ha; visual rating, scale 0 (no effect) to 100 (complete control); postemergence

CCNC(=O)c1ccc(F)c(NC(=O)c2cc(C(C)(C)C)nn2CC)n1 [Compound 278]
Pigweed plant response rating (0 to 100 scale) [1, 16]: 100
Plant response rating, Pigweed [1, 17]: 100
Pigweed plant response rating [1, 18]: 10
Pigweed plant response rating [1, 19]: 40
Barnyardgrass plant response rating (0 to 100 scale) [2, 16]: 30
Plant response rating, Barnyardgrass [2, 17]: 80
Barnyardgrass plant response rating [2, 18]: 0
Barnyardgrass plant response rating [2, 19]: 10
Velvetleaf plant response rating (0 to 100 scale) [3, 16]: 0
Plant response rating, Velvetleaf [3, 17]: 60
Velvetleaf plant response rating [3, 18]: 10
Velvetleaf plant response rating [3, 19]: 10
Lambsquarters plant response rating (0 to 100 scale) [4, 16]: 100
Plant response rating, Lambsquarters [4, 17]: 100
Lambsquarters plant response rating [4, 18]: 20
Lambsquarters plant response rating [4, 19]: 30
Surinam Grass plant response rating (0 to 100 scale) [5, 16]: 20
Plant response rating, Surinam Grass [5, 17]: 60
Surinam Grass plant response rating [5, 18]: 10
Surinam Grass plant response rating [5, 19]: 10
Ducksalad plant response rating [6]: 80
Corn plant response rating (0 to 100 scale) [7, 16]: 0
Plant response rating, Corn [7, 17]: 20
Corn plant response rating [7, 18]: 10
Corn plant response rating [7, 19]: 20
Foxtail, Giant plant response rating (0 to 100 scale) [8, 16]: 20
Plant response rating, Foxtail, Giant [8, 17]: 80
Foxtail, Giant plant response rating [8, 18]: 0
Foxtail, Giant plant response rating [8, 19]: 10
Sedge, Umbrella plant response rating [9]: 70
Crabgrass, Large plant response rating (0 to 100 scale) [10, 16]: 20
Plant response rating, Crabgrass, Large [10, 17]: 80
Crabgrass, Large plant response rating [10, 18]: 0
Crabgrass, Large plant response rating [10, 19]: 10
Oat, Wild plant response rating [11, 18]: 20
Oat, Wild plant response rating [11, 19]: 30
Cocklebur plant response rating (0 to 100 scale) [12, 16]: 0
Plant response rating, Cocklebur [12, 17]: 0
Cocklebur plant response rating [12, 18]: 10
Cocklebur plant response rating [12, 19]: 30
Blackgrass plant response rating [13, 18]: 20
Blackgrass plant response rating [13, 19]: 30
Morningglory plant response rating (0 to 100 scale) [14, 16]: 0
Plant response rating, Morningglory [14, 17]: 10
Morningglory plant response rating [14, 18]: 0
Morningglory plant response rating [14, 19]: 20
Rice plant response rating [15]: 60

CCn1nc(C(C)(C)C)cc1C(=O)Nc1nc(C(=O)N2CC=CC2)ccc1F [Compound 281]
Pigweed plant response rating (0 to 100 scale) [1, 16]: 100
Plant response rating, Pigweed [1, 17]: 100
Pigweed plant response rating [1, 18]: 20
Pigweed plant response rating [1, 19]: 30
Barnyardgrass plant response rating (0 to 100 scale) [2, 16]: 20
Plant response rating, Barnyardgrass [2, 17]: 90
Barnyardgrass plant response rating [2, 18]: 0
Barnyardgrass plant response rating [2, 19]: 0
Velvetleaf plant response rating (0 to 100 scale) [3, 16]: 10
Plant response rating, Velvetleaf [3, 17]: 70
Velvetleaf plant response rating [3, 18]: 0
Velvetleaf plant response rating [3, 19]: 20
Lambsquarters plant response rating (0 to 100 scale) [4, 16]: 90
Plant response rating, Lambsquarters [4, 17]: 100
Lambsquarters plant response rating [4, 18]: 20
Lambsquarters plant response rating [4, 19]: 30
Surinam Grass plant response rating (0 to 100 scale) [5, 16]: 10
Plant response rating, Surinam Grass [5, 17]: 40
Surinam Grass plant response rating [5, 18]: 10
Surinam Grass plant response rating [5, 19]: 20
Ducksalad plant response rating [6]: 80
Corn plant response rating (0 to 100 scale) [7, 16]: 0
Plant response rating, Corn [7, 17]: 0
Corn plant response rating [7, 18]: 0
Corn plant response rating [7, 19]: 10
Foxtail, Giant plant response rating (0 to 100 scale) [8, 16]: 10
Plant response rating, Foxtail, Giant [8, 17]: 60
Foxtail, Giant plant response rating [8, 18]: 10
Foxtail, Giant plant response rating [8, 19]: 10
Sedge, Umbrella plant response rating [9]: 70
Crabgrass, Large plant response rating (0 to 100 scale) [10, 16]: 10
Plant response rating, Crabgrass, Large [10, 17]: 70
Crabgrass, Large plant response rating [10, 18]: 10
Crabgrass, Large plant response rating [10, 19]: 10
Oat, Wild plant response rating [11, 18]: 10
Oat, Wild plant response rating [11, 19]: 20
Cocklebur plant response rating (0 to 100 scale) [12, 16]: 0
Plant response rating, Cocklebur [12, 17]: 0
Cocklebur plant response rating [12, 18]: 20
Cocklebur plant response rating [12, 19]: 20
Blackgrass plant response rating [13, 18]: 20
Blackgrass plant response rating [13, 19]: 30
Morningglory plant response rating (0 to 100 scale) [14, 16]: 0
Plant response rating, Morningglory [14, 17]: 20
Morningglory plant response rating [14, 18]: 0
Morningglory plant response rating [14, 19]: 10
Rice plant response rating [15]: 70

C#CCNC(=O)c1cc(NC(=O)c2cc(C(C)(C)C)nn2CC)ccn1 [Compound 283]
Pigweed plant response rating (0 to 100 scale) [1, 16]: 0
Plant response rating, Pigweed [1, 17]: 100
Pigweed plant response rating [1, 18]: 0
Pigweed plant response rating [1, 19]: 20
Barnyardgrass plant response rating (0 to 100 scale) [2, 16]: 0
Plant response rating, Barnyardgrass [2, 17]: 10
Barnyardgrass plant response rating [2, 18]: 0
Barnyardgrass plant response rating [2, 19]: 0
Velvetleaf plant response rating (0 to 100 scale) [3, 16]: 0
Plant response rating, Velvetleaf [3, 17]: 0
Velvetleaf plant response rating [3, 18]: 0
Velvetleaf plant response rating [3, 19]: 0
Lambsquarters plant response rating (0 to 100 scale) [4, 16]: 0
Plant response rating, Lambsquarters [4, 17]: 100
Lambsquarters plant response rating [4, 18]: 0
Lambsquarters plant response rating [4, 19]: 30
Surinam Grass plant response rating (0 to 100 scale) [5, 16]: 0
Plant response rating, Surinam Grass [5, 17]: 0
Surinam Grass plant response rating [5, 18]: 0
Surinam Grass plant response rating [5, 19]: 10
Ducksalad plant response rating [6]: 70
Plant response rating, Corn [7, 17]: 0
Corn plant response rating [7, 18]: 0
Corn plant response rating [7, 19]: 10
Foxtail, Giant plant response rating (0 to 100 scale) [8, 16]: 0
Plant response rating, Foxtail, Giant [8, 17]: 10
Foxtail, Giant plant response rating [8, 18]: 0
Foxtail, Giant plant response rating [8, 19]: 0
Sedge, Umbrella plant response rating [9]: 80
Crabgrass, Large plant response rating (0 to 100 scale) [10, 16]: 0
Plant response rating, Crabgrass, Large [10, 17]: 50
Crabgrass, Large plant response rating [10, 18]: 0
Crabgrass, Large plant response rating [10, 19]: 10
Oat, Wild plant response rating [11, 18]: 0
Oat, Wild plant response rating [11, 19]: 10
Cocklebur plant response rating (0 to 100 scale) [12, 16]: 0
Plant response rating, Cocklebur [12, 17]: 0
Cocklebur plant response rating [12, 18]: 0
Cocklebur plant response rating [12, 19]: 0
Blackgrass plant response rating [13, 18]: 20
Blackgrass plant response rating [13, 19]: 40
Morningglory plant response rating (0 to 100 scale) [14, 16]: 0
Plant response rating, Morningglory [14, 17]: 0
Morningglory plant response rating [14, 18]: 0
Morningglory plant response rating [14, 19]: 30
Rice plant response rating [15]: 10

CCn1nc(C(C)(C)C)cc1C(=O)Nc1cncc(C(=O)N2CC=CC2)n1 [Compound 290]
Pigweed plant response rating (0 to 100 scale) [1, 16]: 0
Pigweed plant response rating [1, 20]: 10
Plant response rating, Pigweed [1, 17]: 100
Pigweed plant response rating [1, 19]: 10
Barnyardgrass plant response rating (0 to 100 scale) [2, 16]: 0
Barnyardgrass plant response rating [2, 20]: 0
Plant response rating, Barnyardgrass [2, 17]: 80
Barnyardgrass plant response rating [2, 19]: 0
Velvetleaf plant response rating [3, 20]: 0
Plant response rating, Velvetleaf [3, 17]: 0
Velvetleaf plant response rating [3, 19]: 10
Lambsquarters plant response rating (0 to 100 scale) [4, 16]: 100
Lambsquarters plant response rating [4, 20]: 10
Plant response rating, Lambsquarters [4, 17]: 100
Lambsquarters plant response rating [4, 19]: 20
Surinam Grass plant response rating (0 to 100 scale) [5, 16]: 0
Surinam Grass plant response rating [5, 20]: 0
Plant response rating, Surinam Grass [5, 17]: 10
Surinam Grass plant response rating [5, 19]: 30
Ducksalad plant response rating [6]: 70
Corn plant response rating (0 to 100 scale) [7, 16]: 0
Corn plant response rating [7, 20]: 0
Plant response rating, Corn [7, 17]: 0
Corn plant response rating [7, 19]: 10
Foxtail, Giant plant response rating (0 to 100 scale) [8, 16]: 10
Foxtail, Giant plant response rating [8, 20]: 20
Plant response rating, Foxtail, Giant [8, 17]: 80
Foxtail, Giant plant response rating [8, 19]: 60
Sedge, Umbrella plant response rating [9]: 70
Crabgrass, Large plant response rating (0 to 100 scale) [10, 16]: 0
Crabgrass, Large plant response rating [10, 20]: 0
Plant response rating, Crabgrass, Large [10, 17]: 90
Crabgrass, Large plant response rating [10, 19]: 0
Oat, Wild plant response rating [11, 20]: 20
Oat, Wild plant response rating [11, 19]: 40
Cocklebur plant response rating (0 to 100 scale) [12, 16]: 0
Cocklebur plant response rating [12, 20]: 0
Plant response rating, Cocklebur [12, 17]: 0
Cocklebur plant response rating [12, 19]: 10
Blackgrass plant response rating [13, 20]: 20
Blackgrass plant response rating [13, 19]: 30
Morningglory plant response rating (0 to 100 scale) [14, 16]: 0
Morningglory plant response rating [14, 20]: 0
Plant response rating, Morningglory [14, 17]: 0
Morningglory plant response rating [14, 19]: 0
Rice plant response rating [15]: 60
